According to ChEMBL document CHEMBL3272353, “4-Substituted semicarbazones of mono- and dichlorobenzaldehydes as antihypertensive agents” (J Med Chem, 1977):
Activity calls are given as the source filed them. No cut-off for these calls is given here.

Tests used:
Canis familiaris [1] = assay: Toxicity in dog assessed ataxia at 10 mg/kg, po administered in gelatin capsules; assay type: organism-based, Canis lupus familiaris; design: dose 10 mg/kg, route oral; conditions: in vivo
Rattus norvegicus [2] = assay: Antihypertensive activity in spontaneously hypertensive rat assessed as reduction in mean arterial blood pressure at 10 mg/kg, po administered as two dose at 24 hrs interval measured 4 hrs post second dose relative to control; assay type: functional, Artery; design: scale not given: the % may be the effect or the level left
Canis familiaris [3] = assay: Antihypertensive activity in normotensive dog assessed as reduction in mean arterial blood pressure at 5 to 10 mg/kg, po administered in gelatin capsules; assay type: functional, organism-based; conditions: Canis lupus familiaris, Artery
Rattus norvegicus [4] = assay: Antihypertensive activity in spontaneously hypertensive rat assessed as reduction in mean arterial blood pressure at 5 mg/kg, po administered as two dose at 24 hrs interval measured 4 hrs post second dose relative to control; assay type: functional, Artery; design: scale not given: the % may be the effect or the level left
Rattus norvegicus [5] = assay: Toxicity in spontaneously hypertensive rat assessed as general depression of cardiovascular function at 100 mg/kg, po administered as two dose at 24 hrs interval; assay type: organism-based, Heart; design: dose 100 mg/kg, route oral; conditions: in vivo
Rattus norvegicus [6] = assay: Toxicity in spontaneously hypertensive rat assessed as adverse effect at 5 to 10 mg/kg, po administered as two dose at 24 hrs interval; assay type: organism-based; design: dose 5-10 mg/kg, route oral; conditions: in vivo
Rattus norvegicus [7] = assay: Antihypertensive activity in spontaneously hypertensive rat assessed as reduction in mean arterial blood pressure at 25 mg/kg, po administered as two dose at 24 hrs interval measured 4 hrs post second dose relative to control; assay type: functional, Artery; design: scale not given: the % may be the effect or the level left
Rattus norvegicus [8] = assay: Antihypertensive activity in spontaneously hypertensive rat assessed as reduction in mean arterial blood pressure at 100 mg/kg, po administered as two dose at 24 hrs interval measured 4 hrs post second dose relative to control; assay type: functional, Artery; design: scale not given: the % may be the effect or the level left

Q: For `CN(C)C(=O)N/N=C/c1c(Cl)cccc1Cl`, which Activity (Canis familiaris [1]) is on record?
A: The Activity was “Toxic”.

Q: What about the Activity (Rattus norvegicus [2]) of the same compound?
A: The Activity was 46%.

Q: And the Activity (Canis familiaris [3])?
A: The Activity was “inactive”.

Q: And the Activity (Rattus norvegicus [4])?
A: Its Activity is 31%.

Q: What about the Activity (Rattus norvegicus [5]) of the same compound?
A: The Activity was “Toxic”.

Q: What about the Activity (Rattus norvegicus [6]) of the same compound?
A: Its Activity is “Non-toxic”.

Q: `N=C(N)N/N=C/c1c(Cl)cccc1Cl` [GUANABENZ] was tested. Which Activity (Rattus norvegicus [7]) did it give?
A: Its Activity is 26%.

Q: With `O=C(N/N=C/c1c(Cl)cccc1Cl)N1CCOCC1` as the compound, how does the Activity (Rattus norvegicus [8]) read?
A: The Activity was 13%.

Q: How did the Activity (Rattus norvegicus [8]) turn out when `CN(C)C(=O)N/N=C/c1ccc(Cl)cc1` was run?
A: The Activity was 16%.

Q: With `CNC(=O)N/N=C/c1c(Cl)cccc1Cl` as the compound, how does the Activity (Rattus norvegicus [8]) read?
A: Its Activity is 32%.
